Assay results as given in patent US7378391B2, “Cyclosporin alkyne analogues and their pharmaceutical uses” (AMR Technology, Inc., priority 2004, dated 2008).
≈ marks a conversion by molar mass, not a printed value.

Experiments:
[1] = system: concanavalin A (ConA)-stimulated murine splenocytes; test: Concanavalin A-stimulated splenocyte assay ([3H]thymidine incorporation); assay type: cell-based, BALB/c mice; settings: for IC50: immunosuppressive activity of the novel cyclosporin alkyne analogue compound
Protocol: Male BALB/c mice, at 5 to 7 weeks of age, were sacrificed by CO2 inhalation. Spleens were removed and dissociated by pushing through a nylon cell strainer. The splenocytes were washed in RPMI 1640/5% fetal calf serum (FCS) and pelleted at 400×g. Red blood cells were then lysed by resuspending the cell pellet in ACK lysis buffer (150 mM NH4Cl, 1 mM KHCO3, 0.1 mM EDTA, 3 mL per spleen) for 10 min at room temperature. After pelleting at 400×g, the cells were washed by resuspending in RPMI 1640/5% FCS and repelleting. The cell pellet was resuspended in RPMI 1640/5% FCS and again passed through a cell strainer to remove cell aggregates. The cells were then counted and adjusted to 2×10^6 cells/ml in RPMI 1640/10% FCS/50 μM 2-mercaptoethanol. Cell viability was assessed by Trypan blue staining. […] The cells were cultured in a 37° C. CO2 incubator for 2 days and then pulsed with 1 μCi of [^3H]thymidine for 6 hours. Cells were harvested onto filtermats with a TomTec 96 well plate harvester and lysed with H2O. The filtermat and scintillation fluid were sealed in a plastic sleeve. [^3H]thymidine incorporation was measured with a Wallac Trilux plate counter. Initial screens were done at a fixed value of 100 ng/ml test compound. IC50s were calculated from 7 point concentration-response curves using GraphPad software.

[2] = literature value, Rich et al.; cited from earlier work

| Structure (SMILES) | IC50 [1] | immunosuppressive activity (as determined by IC50) relative to ISATX247 ([1]; FIG. 1, compared to ISATX247) | immunosuppressive activity (as determined by IC50) relative to cyclosporin A ([1]; FIG. 1, compared to cyclosporin A) | potency in immunosuppression compared to cyclosporin A and ISATX247 ([1]; FIG. 1 legend) | relative immunosuppressive activity compared to cyclosporin A [2] |
| --- | --- | --- | --- | --- | --- |
| CCC1NC(=O)C(C(O)C(C)CC=CC#CI)N(C)C(=O)C(C(C)C)N(C)C(=O)C(CC(C)C)N(C)C(=O)C(CC(C)C)N(C)C(=O)C(C)NC(=O)C(C)NC(=O)C(CC(C)C)N(C)C(=O)C(C(C)C)NC(=O)C(CC(C)C)N(C)C(=O)CN(C)C1=O (stereo not shown) [Example 13, cyclosporin alkynyl iodide] | 1 ng/mL | – | – | – | – |
| CC[C@@H]1NC(=O)[C@H]([C@H](O)[C@H](C)C/C=C/C#CC2CC2)N(C)C(=O)[C@H](C(C)C)N(C)C(=O)[C@H](CC(C)C)N(C)C(=O)[C@H](CC(C)C)N(C)C(=O)[C@@H](C)NC(=O)[C@H](C)NC(=O)[C@H](CC(C)C)N(C)C(=O)[C@H](C(C)C)NC(=O)[C@H](CC(C)C)N(C)C(=O)CN(C)C1=O [Example 33, cyclosporin cyclopropyl alkyne] | 9 ng/mL (≈ 7.18 nM) | equipotent | up to two times more active | enhanced or similar potency | – |
| CCC1NC(=O)C(C(O)C(C)CC=CC#CBr)N(C)C(=O)C(C(C)C)N(C)C(=O)C(CC(C)C)N(C)C(=O)C(CC(C)C)N(C)C(=O)C(C)NC(=O)C(C)NC(=O)C(CC(C)C)N(C)C(=O)C(C(C)C)NC(=O)C(CC(C)C)N(C)C(=O)CN(C)C1=O (stereo not shown) [Example 15, cyclosporin alkynyl bromide] | 8 ng/mL | – | – | – | – |
| CC#CC[C@@H](C)[C@@H](O)[C@H]1C(=O)N[C@@H](CC)C(=O)N(C)CC(=O)N(C)[C@@H](CC(C)C)C(=O)N[C@@H](C(C)C)C(=O)N(C)[C@@H](CC(C)C)C(=O)N[C@@H](C)C(=O)N[C@H](C)C(=O)N(C)[C@@H](CC(C)C)C(=O)N(C)[C@@H](CC(C)C)C(=O)N(C)[C@@H](C(C)C)C(=O)N1C [known cyclosporin alkyne] | – | – | – | – | 10% |
